Source: paper PMC9820279 (International Journal of Molecular Sciences, 2022)
Where two headings read alike, the source gives them in different places. Each block holds one compound with its values, some of them ahead of it.

Tested on: HBMEC monolayer
[1] = matrix ASFE extract 24 µg/mL, 2 h incubation, n.d = not detected in lower compartment
[2] = matrix ASFE extract 24 µg/mL, 4 h incubation, n.d = not detected in lower compartment

Compound: Cc1c(O)cc2c(c1C)O[C@](C)(CCC[C@H](C)CCC[C@H](C)CCCC(C)C)CC2 [γ-Tocopherol]
Te % (SEM) 2 h: 31.5 (0.8)/27.3 (2.1) %
Te % (SEM) 4 h: 42.0 (0.8)/30.0 (1.6) %

Te % (SEM) 2 h [1]: 33.4 (1.9) %
Te % (SEM) 4 h [2]: 39.6 (1.9) %
Compound: C[C@H]1[C@H](C)CC[C@]2(C(=O)O)CC[C@]3(C)C(=CC[C@@H]4[C@@]5(C)C[C@@H](O)[C@H](O)C(C)(C)[C@@H]5CC[C@]43C)[C@H]12 [Corosolic acid]

Te % (SEM) 2 h: 52.8 (3.8) %
Te % (SEM) 4 h: 53.8 (2.8) %
Compound: γ-silenene

Compound: C=C1CCC[C@]2(C)CC[C@H]3C(C)(C)C[C@]132 [β-Panasinsene]
Te % (SEM) 2 h: 33.4 (1.5) %
Te % (SEM) 4 h: 34.8 (1.0) %

Compound: O=C(O)[C@]1(O)C[C@@H](O)[C@@H](O)[C@H](O)C1 [Quinic acid]
Te % (SEM) 2 h (human, 2 h, 30 µg/mL): 20.1 (1.6) %
Te % (SEM) 4 h (human, 4 h, 30 µg/mL): 52.5 (1.4) %

Compound: C=CC1(C)CCC(=C(C)C)CC1C(=C)C (stereo not shown) [γ-Elemene]
Te % (SEM) 2 h: 30.1 (0.1) %
Te % (SEM) 4 h: 41.8 (1.7) %

Te % (SEM) 2 h: 51.5 (1.8) %
Compound: Cymenol

Compound: O=C(O)/C=C/c1ccc(O)c(O)c1 [Caffeic acid]
Te % (SEM) 2 h (human, 2 h, 24 µg/mL): 55.4 (3.7) %
Te % (SEM) 2 h (human, 2 h, 30 µg/mL): 34.8 (1.2) %
Te % (SEM) 4 h (human, 4 h, 24 µg/mL): 68.3(0.3) %
Te % (SEM) 4 h (human, 4 h, 30 µg/mL): 50.1 (3.4) %

Compound: O=C(O)c1ccc(O)cc1 [p-Salycilic acid]
Te % (SEM) 2 h: 25.5 (1.8) %
Te % (SEM) 4 h: 43.4 (1.3) %

Te % (SEM) 2 h: 2.7 (0.2) %
Te % (SEM) 4 h: 25.6 (1.5) %
Compound: Tocospiro A

Compound: C/C=C/C(=O)C1=C(C)CC(O)CC1(C)C (stereo not drawn) [3-hydroxy-β-damascone]
Te % (SEM) 2 h: 84.5 (3.2) %

Compound: CC(CC(=O)CC(C)C1CC(O)C2(C)C3=C(C(=O)CC12C)C1(C)CCC(O)C(C)(CO)C1CC3)C(=O)O (stereo not shown) [Ganolucidic acid C]
Te % (SEM) 2 h [1]: 11.7 (0.7) %
Te % (SEM) 4 h [2]: 15.6 (0.3) %

Compound: C=C(C)[C@@H]1CCC2=CC(=O)C[C@@H](C)[C@]2(C)C1 [Nootkatone]
Te % (SEM) 2 h (human): 29.9 (0.9) %
Te % (SEM) 4 h (human): 43.0 (3.4) %

Compound: C=C1/C=C/[C@H](C(C)C)CC/C(C)=C/CC1 [Germacrene D]
Te % (SEM) 2 h: 3.2 (0.2) %
Te % (SEM) 4 h: 6.6 (0.4) %

Compound: O=Cc1ccc(O)c(O)c1 [Protocatechuic aldehyde]
Te % (SEM) 2 h [1]: 20.3 (1.5) %
Te % (SEM) 4 h [2]: 78.2 (5.7) %

Compound: C[C@@H]1O[C@@H](OC[C@H]2O[C@@H](Oc3c(-c4ccc(O)c(O)c4)oc4cc(O)cc(O)c4c3=O)[C@H](O)[C@@H](O)[C@@H]2O)[C@H](O)[C@H](O)[C@H]1O [Rutin]
Detection / transport to brain side of HBMEC-BBB model: poor transport trough the BBB

Compound: CC(=O)OC(C)(C)[C@@H]1CC[C@@]2(C)CO[C@]3(C)C=CO[C@]23C1 [Phytuberin]
Te % (SEM) 2 h: 33.4 (1.5) %
Te % (SEM) 4 h: 79.6 (2.2) %

Compound: C=CC(=C)CC/C=C(\C)CC/C=C(\C)C=O [β-Sinensal]
Te % (SEM) 2 h: 31.6 (1.2) %
Te % (SEM) 4 h: 38.2 (2.4) %

Te % (SEM) 2 h [1]: 45.1 (3.8) %
Te % (SEM) 4 h [2]: 71.7 (3.2) %
Compound: O=C(O)c1ccc(O)c(O)c1 [Protocatechuic acid]

Compound: Cc1c(C)c2c(c(C)c1O)CC[C@@](C)(CCC[C@H](C)CCC[C@H](C)CCCC(C)C)O2 [α-Tocopherol]
Te % (SEM) 2 h (human, 2 h, 15 µg/mL): 18.3 (0.8) %
Te % (SEM) 2 h (human, 2 h, 40 µg/mL): 19.8 (0.2) %
Te % (SEM) 4 h (human, 4 h, 15 µg/mL): 29.1 (1.5) %
Te % (SEM) 4 h (human, 4 h, 40 µg/mL): 39.7 (3.0) %

Compound: COc1cc(C=O)cc(OC)c1O [Syringaldehyde]
Te % (SEM) 2 h (human): 22.7 (1.5)/33.4 (2.2) %
Te % (SEM) 4 h (human): 45.7 (3.2)/42.0 (1.4) %
Te % (SEM) 2 h [1]: 22.7 (1.5)/33.4 (2.2) %
Te % (SEM) 4 h [2]: 45.7 (3.2)/42.0 (1.4) %

Compound: CC1=CCCC2(C)CCC3C(C)(C)CC132 (stereo not drawn) [(−)-α-Panasinsen]
Te % (SEM) 2 h: 19.8 (0.2) %

Compound: CCC(O)C1CC(C)C2(CC(=O)C3(C)C4=C(CCC32C)C2(C)CCC(=O)C(C)(CO)C2CC4)O1 [Triterpene, (23S,24S)-17,23-Epoxy-24,29-dihydroxy-27-norlanost-8-ene-3,15-dione]
Te % (SEM) 2 h [1]: 30.4 (1.7) %
Te % (SEM) 4 h [2]: 82.9 (5.3) %

Compound: CC[C@@H](CC[C@@H](C)[C@H]1CC[C@H]2[C@@H]3CC=C4C[C@@H](O)CC[C@]4(C)[C@H]3CC[C@]12C)C(C)C [γ-Sitosterol]
Te % (SEM) 2 h: 12.9 (0.6)/11.3 (0.5) %
Te % (SEM) 4 h: 19.2 (1.3)/12.1 (0.6) %

Compound: Phytol
Te % (SEM) 2 h (human): 15.6 (0.3) %
Te % (SEM) 4 h (human): 43.5 (3.7) %

Compound: Cc1ccc(C(C)C)c(O)c1 [Thymol]
Te % (SEM) 2 h (human, 2 h, 40 µg/mL): 34.1 (0.1) %
Te % (SEM) 4 h (human, 4 h, 40 µg/mL): 47.0 (1.7) %

Compound: CC(C)[C@H](C)CC[C@@H](C)[C@H]1CC[C@H]2[C@@H]3CC=C4C[C@@H](O)CC[C@]4(C)[C@H]3CC[C@]12C [Campesterol]
Te % (SEM) 2 h (human): 68.7 (2.2) %

Compound: CC1(C)C[C@H](O)C[C@]2(C)OC(=O)C=C12 [Isololiolide]
Te % (SEM) 2 h: 33.0 (2.6) %
Te % (SEM) 4 h: 61.4 (4.3) %

Compound: C=C(C)C1CCC2(C)OC2C1 (stereo not shown) [Limonene Epoxide]
Te % (SEM) 2 h: 19.5 (1.2) %
Te % (SEM) 4 h: 42.4 (3.2) %

Compound: C[C@H]1[C@H](C)CC[C@]2(CO)CC[C@]3(C)C(=CC[C@@H]4[C@@]5(C)CC[C@H](O)C(C)(C)[C@@H]5CC[C@]43C)[C@H]12 (single isomer, unassigned) [Uvaol Isomer I, Uvaol]
Te % (SEM) 2 h (human): 3.3 (0.1) %
Te % (SEM) 4 h (human): 38.8 (3.2) %
